Laboratory results as given in patent US8198317B2, “Methylenedioxy phenolic compounds and their use to treat disease” (The Ohio State University Research Foundation, priority 2008, dated 2012).

Key:
[1] = system: Human Umbilical Vein Endothelial Cells (HUVECs); assay: MTT cell toxicity assay; format: cell-based; conditions: HUVEC, dose range of 10 nM to 100 μM
Method: Cell Culture: All experiments were performed with cultured Human Umbilical Vein Endothelial Cells (HUVECs—Gibco, Invitrogen) and grown to confluence at 37° C. in a 5% CO2 humidified incubator, on tissue culture flasks previously coated with 1% gelatin in supplemented culture medium (M199 with 10% heat inactivated fetal calf serum, 100 U/ml penicillin, 100 μg/ml streptomycin, 2 mM glutamine, 10 mM HEPES, pH 7.4, heparin 12 I.U./ml, 1% retinal derived growth factor, Sigma). Following trypsin treatment, the cells were detached from the flasks and final mono-layers were prepared by seeding HUVECs on gelatin-precoated culture plates and then incubated for 24-48 h to ensure confluence. Cells up to the fourth passage were used for all experiments. Recombinant human TNF-α was purchased from R&D Systems (Minneapolis, Minn.).
Cell Toxicity Assays: Cellular toxicity was assessed by MTT [3-(4,5-dimethylthiazol-2-yl)-2,5-diphenyltetrazolium bromide] assay, a commercially available assay for assessment of cellular viability. INV-75 was added to HUVECs for 24 hours, and toxicity assays were performed at the end of this period. The MTT assay relies on the cellular reduction of positively charged tetrazolium salts to their intensely colored formazan product by mitochondrial dehydrogenases. Formazan production is decreased in the presence of impaired mitochondrial redox function and enhanced free radical production and may, therefore, be used as an index of cell viability responses to experimental interventions.
In short, after removing microtiter plates from the incubator, fresh medium containing a fixed volume of reconstituted MTT [3-(4,5-dimethylthiazol-2-yl)-2,5-diphenyltetrazlium bromide; final concentration: 0.5 mg/ml] was added to the wells; the plates were kept at 37° C. in a 5% CO2 environment for 2 h, and then the MTT solubilization solution provided by the manufacturer was added. The formazan product formed by the conversion of positively charged tetrazolium salts to the reduced state has low aqueous solubility and is present as purple crystals. Dissolving the formazan with a solubilization buffer (provided in kit) permits the convenient quantification of its formation. Optical density at OD 570 nm is then measured for each well on an absorbance plate reader. The within- and between-assay variability was 3 and 5%, respectively. Various concentrations of INV-75 was tested in cell based assays using the MTT assay, as described above. The concentrations tested ranged from 1 mM to 10 nM and the cells were exposed for over 24 hours in duration (FIG. 2).

[2] = system: Humans; assay: Treatment of established atherosclerosis in humans (Example 21); format: in vivo, human; conditions: oral, in excess of 12 months
Description: Individuals with established atherosclerosis with evidence of plaque in the coronary arteries, carotid arteries or peripheral arteries are known to be at risk for future cardiovascular events such as heart attacks and strokes. These individuals are on treatments such as statins and anti-hypertensive agents such as ACE inhibitors, diuretics or calcium channel blockers. They also will receive an acceptable dose of a composition comprising a compound of the present invention in an acceptable carrier orally and chronically for durations in excess of 12 months. In one study, 3,4-methylenedioxy phenyl acetate (INV 73); 3,4-methylenedioxy-6-nitrophenol (INV 74); 3,4-methylenedioxy-6-nitrophenyl acetate (INV 75); 3,4-Methylenedioxy 6-nitro phenyl lipoate (INV-7465) or 3,4-Methylenedioxy phenyl lipoate (INV-7065) are administered to these individuals. A repeat IVUS measurement is made at the end of the treatment period to assess the effect of the infusion of the composition on coronary atherosclerosis in the target vessel.

[3] = system: Humans; assay: Treatment of atherosclerosis in humans, primary prevention (Example 22); format: in vivo, human; conditions: oral, in excess of 12 months
Description: Individuals with risk factors for atherosclerosis such as family history, hypertension and high cholesterol are known to be at risk for future cardiovascular events such as heart attacks and strokes. These individuals are on primary prevention treatments such as hypolipidemic drug therapy such as statins aspirin and anti-hypertensive agents such as ACE inhibitors, diuretics or calcium channel blockers. They also will receive an acceptable dose of a composition comprising a compound of the present invention in an acceptable carrier orally chronically for durations in excess of 12 months. In one study, 3,4-methylenedioxy phenyl acetate (INV 73); 3,4-methylenedioxy-6-nitrophenol (INV 74); 3,4-methylenedioxy-6-nitrophenyl acetate (INV 75); 3,4-Methylenedioxy 6-nitro phenyl lipoate (INV-7465) or 3,4-Methylenedioxy phenyl lipoate (INV-7065) are administered to these individuals. A repeat IVUS measurement is made at the end of the treatment period to assess the effect of the infusion of the composition on coronary atherosclerosis in the target vessel.

[4] = system: Humans; assay: Prevention or delay of onset of atherosclerosis in humans (Example 23); format: in vivo, human; conditions: 2 mg/kg to 50 mg/kg iv or im, one to six months
Method: Individuals with documented risk factors for atherosclerosis and having high plasma cholesterol levels have a ultrasound analysis of the coronary (IVUS), carotid (IMT) or popliteal arteries to establish a baseline measurement. A portion of these individuals are […] administered a composition comprising a compound of the present invention in an acceptable carrier at a dose of 2 mg/kg to 50 mg/kg intravenously (iv) or intramuscular (im) I to 3 times per week over a period of approximately one to six months. The following compounds are administered to these individuals: 3,4-methylenedioxy phenyl acetate (INV 73); 3,4-methylenedioxy-6-nitrophenol (INV 74); 3,4-methylenedioxy-6-nitrophenyl acetate (INV 75); 3,4-Methylenedioxy 6-nitro phenyl lipoate (INV-7465) or 3,4-Methylenedioxy phenyl lipoate (INV-7065). The other individuals receive the carrier alone. A new ultrasound analysis at the end of the treatment period indicates higher levels of plaque in the vessels of individuals receiving the carrier.

[5] = system: Patients; assay: Treatment of patients with Type I and Type II diabetes (Example 24); format: in vivo, human; conditions: diabetic patients, oral, 12 months
Description: Individuals with Type I and Type II diabetes are at risk for future cardiovascular events such as heart attacks, strokes and kidney disease. These individuals are on prevention treatments such as hypolipidemic drug therapy such as statins and anti-hypertensive agents such as ACE inhibitors. They are already receiving glycemia lowering strategies such as Insulin, PPARγ agents, Metformin or sulfonylurea therapy. They also will receive an acceptable dose of a composition comprising a compound of the present invention in an acceptable carrier orally chronically for durations in excess of 12 months. In one study, 3,4-Methylenedioxy 6-nitro phenyl lipoate (INV-7465) or 3,4-Methylenedioxy phenyl lipoate (INV-7065) are administered to these individuals. The patients undergo the following measurements: HbA1C to assess glycemic control, urinary microalbuminura, blood pressure and lipid measurements. At the end of 12 months of treatment, there is lowering of HbA1C and urinary microalbuminuria. There is an improvement in VLDL cholesterol and a decrease in triglycerides with any of these treatments [(3,4-methylenedioxy phenyl acetate (INV 73); 3,4-methylenedioxy-6-nitrophenol (INV 74); 3,4-methylenedioxy-6-nitrophenyl acetate (INV 75); 3,4-Methylenedioxy 6-nitro phenyl lipoate (INV-7465) or 3,4-Methylenedioxy phenyl lipoate (INV-7065)].

[6] = system: Patients; assay: Treatment of dyslipidemia in diabetic patients (Example 25); format: in vivo, human; conditions: oral, 12 months
Description: Individuals with Type I and Type II diabetes are at risk for future cardiovascular events such as heart attacks, strokes and kidney disease. These individuals often have abnormalities in lipids such as elevations in triglycerides and VLDL cholesterol. They are on treatments such as hypolipidemic drug therapy such as statins and fibrates (Gemfibrozil or Fenofibrate) to lover cholesterol levels in conjunction with glycemia lowering strategies such as Insulin, PPAR γ agents, Metformin or sulfonylurea therapy. In addition to these treatments they will also receive an acceptable dose of a composition comprising a compound of the present invention in an acceptable carrier orally chronically for durations in excess of 12 months. In one study, (3,4-methylenedioxy phenyl acetate (INV 73); 3,4-methylenedioxy-6-nitrophenol (INV 74); 3,4-methylenedioxy-6-nitrophenyl acetate (INV 75); are administered to these individuals. The patients undergo lipid measurements at baseline and at the end of treatment for a 12 month duration. At the end of 12 months of treatment, there is lowering of VLDL cholesterol and a decrease in triglycerides.

SMILES | cell toxicity results compared with those of INV-75 [1] | plaque in the atherosclerotic coronary artery (IVUS) [2] | plaque in the atherosclerotic coronary artery (IVUS) [3] | preventing or reducing atherosclerosis (ultrasound, versus carrier alone) [4] | VLDL cholesterol [5] | triglycerides [5] | VLDL cholesterol [6] | triglycerides [6]
CC(=O)Oc1ccc2c(c1)OCO2 [INV-73, 3,4-Methylenedioxyphenyl acetate] | identical | reduced | reduced | effective | improvement | decrease | lowering | decrease
O=[N+]([O-])c1cc2c(cc1O)OCO2 [INV-74, 3,4-Methylenedioxy-6-nitrophenol] | identical | reduced | reduced | effective | improvement | decrease | lowering | decrease
